Results reported in patent US20120245137A1 (Zalicus Pharmaceuticals Ltd., priority 2009, published 2012).
pIC50: −log10 of the molar value.

Experiments:
Assay type in all cases: cell-based
[1] = biological target: N-type calcium channel subunits (α1B, α2δ, and β3a) (Homo sapiens, UniProt Q00975); assay: Block of Cav2.2 channel, whole cell voltage clamp, manual and PatchXpress; settings: Table 5; table follows Assay Example 3 (whole cell voltage clamp / PatchXpress); assay not given
How it was run: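 Percent block taken as current amplitude ratio with versus without compound, applied in rising doses; IC50 fitted where one cell received multiple doses. Protocol: 50 ms pulses to +20 mV at 0.067 Hz from […] or −90 mV holding; P/n leak subtraction, no junction-potential correction; manual and PatchXpress recordings.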

[2] = biological target: human α1H T-type channels (Homo sapiens, UniProt O95180); assay: T-type calcium channel block, whole cell patch clamp, α1H; settings: HEK cells stably expressing human α1H; mainly non-inactivated protocol; values above 10,000 nM represented as 10000
human α1H T-type channels, sequence (O95180 whole entry): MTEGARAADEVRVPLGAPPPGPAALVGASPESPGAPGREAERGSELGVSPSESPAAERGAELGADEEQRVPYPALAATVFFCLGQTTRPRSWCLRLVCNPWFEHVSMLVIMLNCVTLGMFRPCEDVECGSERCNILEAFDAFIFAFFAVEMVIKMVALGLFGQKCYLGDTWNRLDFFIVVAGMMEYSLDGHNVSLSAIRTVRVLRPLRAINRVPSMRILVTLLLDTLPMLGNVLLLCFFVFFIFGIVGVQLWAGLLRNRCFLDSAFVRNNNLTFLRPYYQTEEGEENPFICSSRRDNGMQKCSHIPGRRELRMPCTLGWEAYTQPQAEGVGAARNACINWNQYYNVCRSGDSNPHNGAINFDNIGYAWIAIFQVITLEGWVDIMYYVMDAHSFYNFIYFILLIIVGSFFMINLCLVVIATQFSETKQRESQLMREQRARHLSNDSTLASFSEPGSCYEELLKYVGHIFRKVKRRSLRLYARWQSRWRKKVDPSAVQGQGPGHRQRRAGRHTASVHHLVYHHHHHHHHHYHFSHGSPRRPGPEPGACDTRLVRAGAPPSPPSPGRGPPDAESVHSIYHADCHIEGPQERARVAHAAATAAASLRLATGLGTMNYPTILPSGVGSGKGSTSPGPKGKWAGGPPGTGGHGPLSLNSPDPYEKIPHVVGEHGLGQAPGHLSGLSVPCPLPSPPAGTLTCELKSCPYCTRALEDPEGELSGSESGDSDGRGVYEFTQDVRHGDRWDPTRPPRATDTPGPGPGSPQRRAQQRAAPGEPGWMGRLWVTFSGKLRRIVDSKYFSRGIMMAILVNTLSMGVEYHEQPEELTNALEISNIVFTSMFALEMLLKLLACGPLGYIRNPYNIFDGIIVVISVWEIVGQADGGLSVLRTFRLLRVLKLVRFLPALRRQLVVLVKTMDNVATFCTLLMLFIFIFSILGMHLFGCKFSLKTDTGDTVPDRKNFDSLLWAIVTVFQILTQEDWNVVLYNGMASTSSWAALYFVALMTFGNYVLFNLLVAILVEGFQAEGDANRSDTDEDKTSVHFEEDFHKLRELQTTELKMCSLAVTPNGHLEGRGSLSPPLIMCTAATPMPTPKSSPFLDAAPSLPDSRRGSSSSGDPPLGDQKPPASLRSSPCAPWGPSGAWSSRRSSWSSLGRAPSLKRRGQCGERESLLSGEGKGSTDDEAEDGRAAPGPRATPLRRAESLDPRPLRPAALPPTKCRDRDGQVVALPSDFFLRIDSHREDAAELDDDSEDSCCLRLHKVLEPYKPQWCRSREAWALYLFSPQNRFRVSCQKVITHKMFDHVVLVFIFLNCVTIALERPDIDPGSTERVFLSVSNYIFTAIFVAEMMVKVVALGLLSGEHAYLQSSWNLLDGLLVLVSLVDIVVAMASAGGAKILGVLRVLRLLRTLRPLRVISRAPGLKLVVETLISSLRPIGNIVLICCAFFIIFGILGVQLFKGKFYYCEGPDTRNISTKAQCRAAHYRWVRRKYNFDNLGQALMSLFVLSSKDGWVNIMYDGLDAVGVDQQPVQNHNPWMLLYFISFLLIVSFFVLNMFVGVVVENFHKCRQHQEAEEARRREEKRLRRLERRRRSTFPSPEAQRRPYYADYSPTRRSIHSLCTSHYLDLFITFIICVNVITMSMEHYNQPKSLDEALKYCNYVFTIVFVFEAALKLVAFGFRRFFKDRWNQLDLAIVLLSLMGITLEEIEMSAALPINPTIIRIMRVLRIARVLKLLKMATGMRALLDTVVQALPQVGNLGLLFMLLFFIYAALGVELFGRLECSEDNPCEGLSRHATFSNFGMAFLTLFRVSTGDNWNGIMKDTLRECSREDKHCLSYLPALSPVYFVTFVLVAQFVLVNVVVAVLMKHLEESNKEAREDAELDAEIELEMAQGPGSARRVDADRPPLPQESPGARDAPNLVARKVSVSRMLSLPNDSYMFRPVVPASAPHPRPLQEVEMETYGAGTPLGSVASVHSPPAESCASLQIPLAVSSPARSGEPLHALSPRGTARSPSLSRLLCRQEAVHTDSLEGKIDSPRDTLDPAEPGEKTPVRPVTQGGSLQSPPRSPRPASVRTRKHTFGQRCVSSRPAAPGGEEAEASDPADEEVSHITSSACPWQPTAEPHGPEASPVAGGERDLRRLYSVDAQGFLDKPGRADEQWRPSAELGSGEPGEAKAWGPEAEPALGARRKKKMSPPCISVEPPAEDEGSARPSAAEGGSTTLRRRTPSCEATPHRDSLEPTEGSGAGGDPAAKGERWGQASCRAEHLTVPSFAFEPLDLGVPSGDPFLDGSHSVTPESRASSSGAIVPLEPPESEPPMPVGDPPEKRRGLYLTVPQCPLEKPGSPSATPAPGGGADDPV
How it was run: (§1)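 Blockade of T-type current was measured in human α1G- or α1H-expressing HEK 293 cells using whole-cell recording with ~5 MΩ pipettes. Test compounds, dissolved in external solution containing 0.1-0.01% DMSO, were applied close to the cell, and block was examined under both non-inactivating and inactivating voltage protocols.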

[3] = biological target: human α1G T-type channels (Homo sapiens, UniProt O43497); assay: T-type calcium channel block, whole cell patch clamp, α1G; settings: HEK cells stably expressing human α1G; mainly non-inactivated protocol; values above 10,000 nM represented as 10000
human α1G T-type channels, sequence (O43497 whole entry): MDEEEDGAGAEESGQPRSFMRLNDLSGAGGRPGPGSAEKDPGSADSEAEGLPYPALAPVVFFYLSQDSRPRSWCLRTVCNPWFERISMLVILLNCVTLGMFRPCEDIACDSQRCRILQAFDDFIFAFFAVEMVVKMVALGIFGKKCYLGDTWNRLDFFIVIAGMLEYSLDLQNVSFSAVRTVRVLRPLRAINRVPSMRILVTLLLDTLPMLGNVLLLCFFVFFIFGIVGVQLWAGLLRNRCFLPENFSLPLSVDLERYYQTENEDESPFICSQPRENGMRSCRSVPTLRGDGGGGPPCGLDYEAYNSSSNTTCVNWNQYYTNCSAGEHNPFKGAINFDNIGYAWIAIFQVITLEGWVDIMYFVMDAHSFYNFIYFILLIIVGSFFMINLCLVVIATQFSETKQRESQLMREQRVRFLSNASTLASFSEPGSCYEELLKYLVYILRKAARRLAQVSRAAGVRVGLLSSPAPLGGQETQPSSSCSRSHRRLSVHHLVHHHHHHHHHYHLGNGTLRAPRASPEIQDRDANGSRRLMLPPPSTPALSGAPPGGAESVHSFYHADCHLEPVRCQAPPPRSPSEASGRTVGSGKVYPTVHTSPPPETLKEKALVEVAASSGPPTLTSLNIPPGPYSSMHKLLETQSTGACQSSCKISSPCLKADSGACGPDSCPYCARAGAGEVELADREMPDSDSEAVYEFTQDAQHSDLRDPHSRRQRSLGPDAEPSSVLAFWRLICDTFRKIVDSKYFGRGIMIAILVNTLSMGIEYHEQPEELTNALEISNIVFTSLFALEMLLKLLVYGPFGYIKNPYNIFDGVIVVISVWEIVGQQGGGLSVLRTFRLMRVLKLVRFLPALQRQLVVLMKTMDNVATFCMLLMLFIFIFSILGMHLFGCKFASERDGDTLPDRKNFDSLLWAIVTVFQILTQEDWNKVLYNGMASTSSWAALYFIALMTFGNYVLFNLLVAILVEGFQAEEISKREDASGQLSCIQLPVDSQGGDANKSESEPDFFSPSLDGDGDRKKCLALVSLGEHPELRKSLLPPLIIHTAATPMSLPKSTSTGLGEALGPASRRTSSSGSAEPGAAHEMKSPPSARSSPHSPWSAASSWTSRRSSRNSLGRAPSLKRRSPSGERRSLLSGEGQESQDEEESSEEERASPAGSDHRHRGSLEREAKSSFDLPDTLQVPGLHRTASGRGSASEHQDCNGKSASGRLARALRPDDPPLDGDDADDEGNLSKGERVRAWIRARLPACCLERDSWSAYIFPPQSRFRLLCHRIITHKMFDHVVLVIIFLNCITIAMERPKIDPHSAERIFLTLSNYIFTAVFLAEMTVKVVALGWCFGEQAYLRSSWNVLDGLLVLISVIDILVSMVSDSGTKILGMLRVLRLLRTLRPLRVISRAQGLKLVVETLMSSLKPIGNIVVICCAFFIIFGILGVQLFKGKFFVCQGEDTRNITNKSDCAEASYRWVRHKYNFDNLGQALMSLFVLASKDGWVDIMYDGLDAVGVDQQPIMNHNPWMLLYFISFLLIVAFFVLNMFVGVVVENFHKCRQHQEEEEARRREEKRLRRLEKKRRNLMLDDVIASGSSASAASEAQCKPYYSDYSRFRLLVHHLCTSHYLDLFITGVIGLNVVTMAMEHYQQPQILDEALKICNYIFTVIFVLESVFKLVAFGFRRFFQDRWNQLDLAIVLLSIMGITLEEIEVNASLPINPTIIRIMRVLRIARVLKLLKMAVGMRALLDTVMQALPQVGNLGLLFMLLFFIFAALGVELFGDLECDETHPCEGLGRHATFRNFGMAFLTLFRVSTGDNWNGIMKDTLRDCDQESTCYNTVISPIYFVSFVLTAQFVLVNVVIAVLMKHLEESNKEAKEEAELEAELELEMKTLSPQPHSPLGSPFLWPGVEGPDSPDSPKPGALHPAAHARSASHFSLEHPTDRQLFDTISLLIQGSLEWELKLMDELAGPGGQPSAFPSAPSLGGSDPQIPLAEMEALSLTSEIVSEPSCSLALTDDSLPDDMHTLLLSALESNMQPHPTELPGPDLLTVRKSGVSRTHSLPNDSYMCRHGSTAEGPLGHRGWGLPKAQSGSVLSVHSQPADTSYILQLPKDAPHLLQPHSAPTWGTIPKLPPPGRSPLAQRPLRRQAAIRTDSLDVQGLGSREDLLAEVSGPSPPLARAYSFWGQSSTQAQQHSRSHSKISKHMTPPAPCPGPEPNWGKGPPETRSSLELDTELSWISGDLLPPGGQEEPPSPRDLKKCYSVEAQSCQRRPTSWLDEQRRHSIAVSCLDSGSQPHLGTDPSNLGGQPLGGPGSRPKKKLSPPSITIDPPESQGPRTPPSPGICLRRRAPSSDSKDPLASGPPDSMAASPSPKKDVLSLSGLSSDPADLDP
How it was run: as §1

| IC50 [1] [nM] | pIC50 [2] | pIC50 [3] | Structure (SMILES) |
| --- | --- | --- | --- |
| 260 | 5.46 | 5.32 | O=C(N[C@H]1CC[C@@H](S(=O)(=O)c2cc(F)cc(C(F)(F)F)c2)CC1)c1ccc(F)c(C(F)(F)F)c1 [Compound 319, 4-fluoro-N-((1S,4S)-4-(3-fluoro-5-(trifluoromethyl)phenylsulfonyl)cyclohexyl)-3-(trifluoromethyl)benzamide] |
| 1280 | < 5.00 | < 5.00 | O=S(=O)(NC[C@H]1C[C@H](S(=O)(=O)c2cccc(C(F)(F)F)c2)C1)c1ccc(C(F)(F)F)cc1Cl [Compound 423, 2-chloro-4-(trifluoromethyl)-N-(((1R,3R)-3-(3-(trifluoromethyl)phenylsulfonyl)cyclobutyl)methyl)benzenesulfonamide] |
| 230 | < 5.00 | < 5.00 | COc1cc(F)cc(C(=O)NC2(C)CCC(F)(S(=O)(=O)c3cccc(C(F)(F)F)c3)CC2)c1 (stereo not shown) [Compound 94, 3-fluoro-N-(4-fluoro-1-methyl-4-(3-(trifluoromethyl)phenylsulfonyl)cyclohexyl)-5-methoxybenzamide] |
| 460 | 6.70 | 5.79 | O=C(NC[C@H]1C[C@H](S(=O)(=O)c2cccc(C(F)(F)F)c2)C1)c1ccnc(C(F)(F)F)c1 [Compound 361, 2-(trifluoromethyl)-N-(((1R,3R)-3-(3-(trifluoromethyl)phenylsulfonyl)cyclobutyl)methyl)isonicotinamide] |
| 200 | 5.40 | 5.18 | CC1(S(=O)(=O)c2cccc(C(F)(F)F)c2)CCC(NC(=O)c2cc(C(F)(F)F)ccn2)CC1 (stereo not shown) [Compound 21, N-(4-methyl-4-(3-(trifluoromethyl)phenylsulfonyl)cyclohexyl)-4-(trifluoromethyl)picolinamide] |
| 440 | 5.57 | 6.30 | Cn1nc(C(F)(F)F)cc1C(=O)NC[C@H]1CC[C@@H](S(=O)(=O)c2cccc(C(F)(F)F)c2)CC1 [Compound 32, 1-methyl-3-(trifluoromethyl)-N-(((1S,4S)-4-(3-(trifluoromethyl)phenylsulfonyl)cyclohexyl)methyl)-1H-pyrazole-5-carboxamide] |
| 330 | < 5.00 | < 5.00 | Cn1nc(C(F)(F)F)cc1C(=O)NC1CCC(C)(S(=O)(=O)c2cccc(C(F)(F)F)c2)CC1 (stereo not shown) [Compound 6, 1-methyl-N-(4-methyl-4-(3-(trifluoromethyl)phenylsulfonyl)cyclohexyl)-3-(trifluoromethyl)-1H-pyrazole-5-carboxamide] |
| 3120 | 5.54 | 5.40 | CC1(NC(=O)c2ccc(C(F)(F)F)nc2S(C)(=O)=O)CCC(S(=O)(=O)c2cccc(C(F)(F)F)c2)CC1 (stereo not shown) [Compound 316, N-(1-methyl-4-(3-(trifluoromethyl)phenylsulfonyl)cyclohexyl)-2-(methylsulfonyl)-6-(trifluoromethyl)nicotinamide] |
| 260 | 5.02 | 5.14 | O=C(NC[C@H]1C[C@H](S(=O)(=O)c2cccc(C(F)(F)F)c2)C1)c1cc(C(F)(F)F)ccn1 [Compound 372, 4-(trifluoromethyl)-N-(((1R,3R)-3-(3-(trifluoromethyl)phenylsulfonyl)cyclobutyl)methyl)picolinamide] |
| 270 | 5.05 | 5.22 | O=C(NC[C@H]1C[C@H](S(=O)(=O)c2cc(F)cc(C(F)(F)F)c2)C1)c1ccc(F)c(C(F)(F)F)c1 [Compound 389, 4-fluoro-N-(((1R,3R)-3-(3-fluoro-5-(trifluoromethyl)phenylsulfonyl)cyclobutyl)methyl)-3-(trifluoromethyl) benzamide] |
| 740 | 5.29 | 5.28 | O=C(CNC[C@H]1CC[C@@H](S(=O)(=O)c2cccc(C(F)(F)F)c2)CC1)NC1CCCCC1 [Compound 36, N-cyclohexyl-2-(((1S,4S)-4-(3-(trifluoromethyl)phenylsulfonyl)cyclohexyl)methylamino)acetamide] |
| 210 | 6.17 | 5.95 | CC([C@H]1C[C@H](NC(=O)c2ccc(F)c(Cl)c2)C1)S(=O)(=O)c1cccc(C(F)(F)F)c1 (stereo partly drawn) [Compound 434, 3-chloro-4-fluoro-N-((1R,3R)-3-( (R)-1-(3-(trifluoromethyl)phenylsulfonyl)ethyl)cyclobutyl)benzamide] |
| 1290 | 5.81 | 5.94 | COc1cc(Cl)ccc1C(=O)N[C@H]1CC[C@H](S(=O)(=O)c2cccc(C(F)(F)F)c2)CC1 [Compound 127, 4-chloro-2-methoxy-N-((1R,4R)-4-(3-(trifluoromethyl)phenylsulfonyl)cyclohexyl)benzamide] |
| 300 | < 5.00 | < 5.00 | O=C(N[C@H]1CC[C@@](F)(S(=O)(=O)c2cccc(C(F)(F)F)c2)CC1)C1CCC(F)(F)CC1 [Compound 305, 4,4-difluoro-N-((1S,4S)-4-fluoro-4-(3-(trifluoromethyl)phenylsulfonyl)cyclohexyl) cyclohexanecarboxamide] |
| – | 6.33 | 6.96 | CC(C)(CCNC(=O)c1ccc(Oc2ccc(F)cc2)cc1)S(=O)(=O)c1cccc(C(F)(F)F)c1 [Compound 520, 4-(4-fluorophenoxy)-N-(3-methyl-3-(3-(trifluoromethyl)phenylsulfonyl)butyl) benzamide] |
| – | < 5.00 | 6.14 | COc1c(C)cc(C(=O)NCC(C)(C)S(=O)(=O)c2cccc(C(F)(F)F)c2)cc1C [Compound 481, 4-methoxy-3,5-dimethyl-N-(2-methyl-2-(3-(trifluoromethyl)phenylsulfonyl)propyl) benzamide] |
| – | 6.13 | 6.33 | CC(C)(CCNC(=O)c1ccc(Oc2ccc(Cl)cc2)cc1)S(=O)(=O)c1cc(F)cc(C(F)(F)F)c1 [Compound 537, 4-(4-chlorophenoxy)-N-(3-(3-fluoro-5-(trifluoromethyl)phenylsulfonyl)-3-methylbutyl)benzamide] |
| – | < 5.00 | 6.08 | CN(CCC(C)(C)S(=O)(=O)c1cccc(C(F)(F)F)c1)C(=O)c1cn2ccc(C(F)(F)F)cc2n1 [Compound 514, N-methyl-N-(3-methyl-3-(3-(trifluoromethyl)phenylsulfonyl)butyl)-7-(trifluoromethyl)imidazo[1,2-a]pyridine-2-carboxamide] |
| – | < 5.00 | 6.34 | CC(C)(CNS(=O)(=O)c1cccc2nsnc12)S(=O)(=O)c1cccc(C(F)(F)F)c1 [Compound 490] |
| – | 5.39 | 6.22 | CC1(C)CCC(NCC(C)(C)S(=O)(=O)c2cccc(C(F)(F)F)c2)CC1 [Compound 518, 4,4-dimethyl-N-(2-methyl-2-(3-(trifluoromethyl)phenylsulfonyl)propyl) cyclohexanamine] |
| – | < 5.00 | 6.48 | COc1cc(C(=O)N(C)CCC(C)(C)S(=O)(=O)c2cccc(C(F)(F)F)c2)cc(Cl)n1 [Compound 512, 2-chloro-6-methoxy-N-methyl-N-(3-methyl-3-(3-(trifluoromethyl)phenylsulfonyl)butyl) isonicotinamide] |
| – | 5.00 | 6.21 | CC(C)(CNC(=O)c1cn2ccc(C(F)(F)F)cc2n1)S(=O)(=O)c1cccc(C(F)(F)F)c1 [Compound 505, N-(2-methyl-2-(3-(trifluoromethyl)phenylsulfonyl)propyl)-7-(trifluoromethyl)imidazo[1,2-a]pyridine-2-carboxamide] |
| – | 5.86 | 6.59 | CC(C)(CNS(=O)(=O)c1ccc(C(F)(F)F)cc1Cl)S(=O)(=O)c1cccc(C(F)(F)F)c1 [Compound 498, 2-chloro-N-(2-methyl-2-(3-(trifluoromethyl)phenylsulfonyl)propyl)-4-(trifluoromethyl) benzenesulfonamide] |
| – | < 5.00 | 6.72 | CC(C)(CCS(=O)(=O)c1cc(Cl)cc(Cl)c1)S(=O)(=O)c1cccc(C(F)(F)F)c1 [Compound 461, 1,3-dichloro-5-(3-methyl-3-(3-(trifluoromethyl)phenylsulfonyl)butylsulfonyl)benzene] |
| – | 5.55 | 6.72 | CC(C)(C(=O)Nc1ccc(Oc2ccc(F)cc2)nc1)S(=O)(=O)c1cccc(C(F)(F)F)c1 [Compound 503, N-(6-(4-fluorophenoxy)pyridin-3-yl)-2-methyl-2-(3-(trifluoromethyl)phenylsulfonyl)propanamide] |
| – | 5.68 | 6.05 | CC(C)(CNC(=O)c1ccc(Cl)c(Cl)c1)S(=O)(=O)c1cccc(C(F)(F)F)c1 [Compound 479, 3,4-dichloro-N-(2-methyl-2-(3-(trifluoromethyl)phenylsulfonyl)propyl) benzamide] |
| – | < 5.00 | 6.27 | CC(C)(C)C(=O)Nc1ccncc1C(=O)NCC(C)(C)S(=O)(=O)c1cccc(C(F)(F)F)c1 [Compound 477, N-(2-methyl-2-(3-(trifluoromethyl)phenylsulfonyl)propyl)-4-pivalamidonicotinamide] |

| Structure (SMILES) | IC50 [1] [nM] | pIC50 [2] | pIC50 [3] |
| --- | --- | --- | --- |
| CC(C)(C)Oc1ccc(CNC(=O)C(C)(C)S(=O)(=O)c2cccc(C(F)(F)F)c2)cc1 [Compound 502, N-(4-tert-butoxybenzyl)-2-methyl-2-(3-(trifluoromethyl)phenylsulfonyl)propanamide] | – | 5.51 | 6.44 |
